Measurements as given in patent US20190092789A1, “HETEROBICYCLIC PYRIMIDINONE COMPOUNDS AND THEIR USE IN THE TREATMENT OF MEDICAL DISORDERS” (priority 2015, published 2019).
≈ marks a conversion by molar mass, not a printed value.

Assays:
[1] = molecular target: T1, glucocerebrosidase (Gcase) (Homo sapiens, UniProt P04062); assay: Glucocerebrosidase (Gcase) activation assay, 4-methylumbelliferyl-beta-D-glucopyranoside substrate, with saposin C; assay type: biochemical; conditions: 10 nM GCase, 100 nM saposin C, pH 4.7; for activation at 0.1 µM: read-out: Percent Gcase Activation, 0.1 μM Test Compound; for activation at 1 µM: 0.25 h, read-out: Percent Gcase Activation, 1 μM Test Compound
T1 construct: 100 μL of micellar solution containing 10 nM GCase and 100 nM saposin C (Enzo ALX-201-262-C050)
T1 sequence (P04062 40-536): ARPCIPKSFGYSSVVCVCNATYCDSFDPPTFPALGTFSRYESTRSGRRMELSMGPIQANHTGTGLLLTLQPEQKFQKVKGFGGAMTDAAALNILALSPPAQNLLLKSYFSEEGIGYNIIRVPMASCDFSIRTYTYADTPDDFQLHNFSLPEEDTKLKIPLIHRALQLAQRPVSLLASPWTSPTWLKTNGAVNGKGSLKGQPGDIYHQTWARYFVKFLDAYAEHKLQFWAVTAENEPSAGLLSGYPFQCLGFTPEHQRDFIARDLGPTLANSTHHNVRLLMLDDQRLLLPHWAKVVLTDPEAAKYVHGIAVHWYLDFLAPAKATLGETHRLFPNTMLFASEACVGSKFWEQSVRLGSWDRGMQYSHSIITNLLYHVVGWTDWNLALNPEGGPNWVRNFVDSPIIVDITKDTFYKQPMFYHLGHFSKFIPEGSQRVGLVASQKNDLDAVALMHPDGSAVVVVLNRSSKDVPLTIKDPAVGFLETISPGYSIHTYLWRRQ
Method: A 484 μL aliquot of a 1.0 mg/mL solution of phosphatidylserine (PS) (Sigma P7769) in chloroform was evaporated under a stream of nitrogen for 1 hour. The lipid film was dissolved over 4 minutes of vigorous vortexing in 40 mL of 176 mM K2HPO4/50 mM citric acid (pH 4.7) containing 7.5 μL of triton X-100, resulting in a mixed micellar preparation with a composition of 0.32 mM triton and 0.37 mol % PS. 4-Methylumbelliferyl-beta-D-glucopyranoside (ACROS-337025000) was dissolved in the micellar solution to a final concentration of 2 mM for use as the reaction substrate.
Test compounds were diluted to the desired concentrations with dimethylsulfoxide (DMSO) from 10 mM stocks, and 0.41 μL of the DMSO compound mixture was added to 100 μL of micellar solution containing 10 nM GCase and 100 nM saposin C (Enzo ALX-201-262-C050). Pre-incubation was allowed to occur for 30 minutes at room temperature, after which the reaction was initiated by combining 25 μL of substrate solution with 25 μL of compound/GCase/saposin mixture. The reaction proceeded for 15 minutes at room temperature and was stopped by adding 150 μL of 1M glycine, pH 12.5. The endpoint of the reaction was monitored by measuring fluorescence intensity (excitation: 365 nm; emission: 440 nm) on a SpectraMax i3 instrument (Molecular Devices). Test compounds were screened at 1.0 and 0.1 μM final concentration, and subsequent 8-point dose response curves were obtained using 3-fold dilutions from a maximum final concentration of 5 μM.

[2] = Compound solubility in water

Molecule	activation at 0.1 µM ([1]; 0.1 μM test compound)	activation at 1 µM ([1]; 1 μM test compound)	solubility [2]	Percent Gcase Activation, 0.1 μM Test Compound ([1]; 0.1 μM test compound)	Percent Gcase Activation, 1 μM Test Compound ([1]; 1 μM test compound)
C[C@@H](NC(=O)c1cnc2occn2c1=O)c1ccccc1	< 5%	< 5%	25.6 µg/mL (≈ 90.4 µM)	–	–
O=C(NC1CCc2ccccc21)c1cnc2occn2c1=O (stereo not shown)	< 5%	5 to 10%	25.1 µg/mL (≈ 85 µM)	–	–
CCC(C)c1ccc(NC(=O)c2cnc3[nH]ccn3c2=O)cc1 (stereo not shown)	< 5%	5 to 10%	1.4 µg/mL (≈ 4.51 µM)	–	–
O=C(NC1CCc2ccccc2C1)c1cnc2occn2c1=O (stereo not shown)	5 to 10%	< 5%	22.6 µg/mL (≈ 73.1 µM)	–	–
CCC(C)c1ccc(NC(=O)c2cnc3occn3c2=O)cc1 (stereo not shown)	< 5%	> 10%	0.3 µg/mL (≈ 0.964 µM)	–	–
O=C(NC1CCC(c2ccccc2)CC1)c1cnc2occn2c1=O (stereo not shown)	< 5%	> 10%	58 µg/mL (≈ 172 µM)	–	–
CCC(C)c1ccc(NC(=O)c2cnc3n(C)ccn3c2=O)cc1 (stereo not shown)	< 5%	> 10%	0.5 µg/mL (≈ 1.54 µM)	–	–
CCN1CCN(c2ccc(NC(=O)c3cnc4occn4c3=O)cc2)CC1	< 5%	< 5%	40.2 µg/mL (≈ 109 µM)	–	–
O=C(Nc1ccc(N2CCCCC2)cc1)c1cnc2occn2c1=O	< 5%	< 5%	2.2 µg/mL (≈ 6.5 µM)	–	–
O=C(NC1CCCc2ccccc21)c1cnc2occn2c1=O (stereo not shown)	< 5%	> 10%	30.2 µg/mL (≈ 97.6 µM)	–	–

The remaining lines, values ahead:

activation at 0.1 µM ([1]; 0.1 μM test compound)	activation at 1 µM ([1]; 1 μM test compound)	solubility [2]	Percent Gcase Activation, 0.1 μM Test Compound ([1]; 0.1 μM test compound)	Percent Gcase Activation, 1 μM Test Compound ([1]; 1 μM test compound)	Molecule
< 5%	< 5%	5.5 µg/mL (≈ 17.6 µM)	–	–	O=C(Nc1ccc2c(c1)OCCO2)c1cnc2occn2c1=O
< 5%	5 to 10%	–	–	–	CCc1ccc(NC(=O)c2cnc3occn3c2=O)cc1
–	–	–	+ (less than 5% Gcase activation)	+++ (Gcase activation greater than 10%)	N-(4-butylcyclohexyl)-6-oxo-3,4-dihydro-2H,6H-pyrimido[2,1-b][1,3]thiazine-7-carboxamide
5 to 10%	5 to 10%	5.5 µg/mL (≈ 19.7 µM)	–	–	C#Cc1ccc(NC(=O)c2cnc3occn3c2=O)cc1
< 5%	5 to 10%	16.6 µg/mL (≈ 53.5 µM)	–	–	CN1Cc2ccc(NC(=O)c3cnc4occn4c3=O)cc2C1
